This note sets out measurements from paper PMC4520562 (PLoS ONE, 2015).

Read-outs that look alike come from different tables or passages of the source.

Assay [1] deals with GD H6 HA (Influenza A virus (A/chicken/Guangdong/S1311/2010(H6N6)), UniProt A0A067YZV9). To be noted: 2 h, pH 8.0, receptor-binding site.
In assay [2] the target is A/Taiwan/2/2013(H6N1) hemagglutinin ectodomain, trypsin-cleaved into HA1 and HA2 (influenza A virus A/Taiwan/2/2013(H6N1)). As to the kind of experiment: crystal structure.
The target of assay [3] is A/chicken/Guangdong/S1311/2010(H6N6) hemagglutinin ectodomain, trypsin-cleaved into HA1 and HA2 (influenza A virus A/chicken/Guangdong/S1311/2010(H6N6)). The experiment in a line: crystal structure.

`CC(=O)N[C@H]1[C@H](O[C@H]2[C@@H](O)[C@@H](CO)O[C@@H](O[C@H]3[C@H](O)[C@@H](O)C(O)O[C@@H]3CO)[C@@H]2O)O[C@H](CO)[C@@H](O)[C@@H]1O[C@@H]1O[C@H](CO)[C@H](O)[C@H](O[C@]2(C(=O)O)C[C@H](O)[C@@H](NC(C)=O)[C@H]([C@H](O)[C@H](O)CO)O2)[C@H]1O` (stereo partly shown) [LSTa]: the “X-ray crystal structure of complex” value in assay [1] (crystal soaked with 5 mM LSTa, first three sugars visible) was “Gal-2 and GlcNAc-3 of the LSTa are clearly visualized in both GD and TW H6 HA”.

For `CC(=O)N[C@H]1[C@H](O[C@H]2[C@@H](O)[C@@H](CO)O[C@@H](O[C@H]3[C@H](O)[C@@H](O)C(O)O[C@@H]3CO)[C@@H]2O)O[C@H](CO)[C@@H](O[C@@H]2O[C@H](CO[C@]3(C(=O)O)C[C@H](O)[C@@H](NC(C)=O)[C@H]([C@H](O)[C@H](O)CO)O3)[C@H](O)[C@H](O)[C@H]2O)[C@@H]1O` (stereo partly shown) [LSTc], the “X-ray crystal structure of complex” value in assay [1] (crystal soaked with 5 mM LSTc, first two sugars visible) was “only the first two sugar rings are clearly visible in the complex structure of GD H6 HA-LSTc”.

Compound “A/Taiwan/2/2013(H6N1) hemagglutinin ectodomain, trypsin-cleaved into HA1 and HA2 (domain or fragment)” yielded a stoichiometry N in assay [2] of 3.

Take “A/chicken/Guangdong/S1311/2010(H6N6) hemagglutinin ectodomain, trypsin-cleaved into HA1 and HA2 (domain or fragment)”: the stoichiometry N in assay [3] was 3.
